Assays:
rice (Oryza sativa) = test: Test B flooded paddy test, visual rating 0-100 (0 no effect, 100 complete control); conditions: Flood, 250 g ai/ha, applied to paddy water, rated after 13 to 15 days
[1] = tested on: barnyardgrass (Echinochloa crus-galli); test: Test A preemergence, visual injury rating 0-100 (0 no effect, 100 complete control); assay type: in vivo
[2] = tested on: ducksalad (Heteranthera limosa); test: Test B flooded paddy test, visual rating 0-100; conditions: Flood, 250 g ai/ha, applied to paddy water, rated after 13 to 15 days
[3] = tested on: foxtail, giant (giant foxtail, Setaria faberii); test: Test A preemergence, visual injury rating 0-100; assay type: in vivo
kochia (Kochia scoparia) [4] = test: Test A preemergence, visual injury rating 0-100; assay type: in vivo
[5] = tested on: pigweed (Amaranthus retroflexus); test: Test A preemergence, visual injury rating 0-100; assay type: in vivo
[6] = tested on: ragweed (common ragweed, Ambrosia elatior); test: Test A preemergence, visual injury rating 0-100; assay type: in vivo
[7] = tested on: ryegrass, Italian (Italian ryegrass, Lolium multiflorum); test: Test A preemergence, visual injury rating 0-100; assay type: in vivo
[8] = tested on: barnyardgrass (Echinochloa crus-galli); test: Test B flooded paddy test, visual rating 0-100; conditions: Flood, 250 g ai/ha, applied to paddy water, rated after 13 to 15 days
[9] = tested on: wheat (Triticum aestivum); test: Test A postemergence, visual injury rating 0-100; assay type: in vivo; conditions: 0 to 100 scale
[10] = tested on: foxtail, giant (giant foxtail, Setaria faberii); test: Test A postemergence, visual injury rating 0-100; assay type: in vivo; conditions: 0 to 100 scale
kochia (Kochia scoparia) [11] = test: Test A postemergence, visual injury rating 0-100; assay type: in vivo; conditions: 0 to 100 scale
[12] = tested on: pigweed (Amaranthus retroflexus); test: Test A postemergence, visual injury rating 0-100; assay type: in vivo; conditions: 0 to 100 scale
[13] = tested on: blackgrass (Alopecurus myosuroides); test: Test A postemergence, visual injury rating 0-100; assay type: in vivo; conditions: 0 to 100 scale
[14] = tested on: barnyardgrass (Echinochloa crus-galli); test: Test A postemergence, visual injury rating 0-100; assay type: in vivo; conditions: 0 to 100 scale
corn (Zea mays) = test: Test A postemergence, visual injury rating 0-100; assay type: in vivo; conditions: 0 to 100 scale
[15] = tested on: galium (catchweed bedstraw, Galium aparine); test: Test A postemergence, visual injury rating 0-100; assay type: in vivo; conditions: 0 to 100 scale
[16] = tested on: ragweed (common ragweed, Ambrosia elatior); test: Test A postemergence, visual injury rating 0-100; assay type: in vivo; conditions: 0 to 100 scale
[17] = tested on: ryegrass, Italian (Italian ryegrass, Lolium multiflorum); test: Test A postemergence, visual injury rating 0-100; assay type: in vivo; conditions: 0 to 100 scale

| Compound | Rice plant response rating (0 to 100 scale) (rice (Oryza sativa)) | Barnyardgrass plant response rating (0 to 100 scale) ([1]; 125 g ai/ha) | Barnyardgrass plant response rating (0 to 100 scale) ([1]; 500 g ai/ha) | Ducksalad plant response rating (0 to 100 scale) [2] | Foxtail, Giant plant response rating (0 to 100 scale) ([3]; 125 g ai/ha) | Foxtail, Giant plant response rating (0 to 100 scale) ([3]; 500 g ai/ha) | Kochia plant response rating (0 to 100 scale) (kochia (Kochia scoparia) [4]; 125 g ai/ha) | Kochia plant response rating (0 to 100 scale) (kochia (Kochia scoparia) [4]; 500 g ai/ha) | Pigweed plant response rating (0 to 100 scale) ([5]; 125 g ai/ha) | Pigweed plant response rating (0 to 100 scale) ([5]; 500 g ai/ha) | Ragweed plant response rating (0 to 100 scale) ([6]; 125 g ai/ha) | Ragweed plant response rating (0 to 100 scale) ([6]; 500 g ai/ha) | Ryegrass, Italian plant response rating (0 to 100 scale) ([7]; 500 g ai/ha) | Barnyardgrass plant response rating (0 to 100 scale) [8] | Wheat plant response rating ([9]; 125 g ai/ha) | Wheat plant response rating ([9]; 500 g ai/ha) | Foxtail, Giant plant response rating ([10]; 125 g ai/ha) | Foxtail, Giant plant response rating ([10]; 500 g ai/ha) | Kochia plant response rating (kochia (Kochia scoparia) [11]; 125 g ai/ha) | Kochia plant response rating (kochia (Kochia scoparia) [11]; 500 g ai/ha) | also measured |
| --- | --- | --- | --- | --- | --- | --- | --- | --- | --- | --- | --- | --- | --- | --- | --- | --- | --- | --- | --- | --- | --- |
| CC1=[N+]([O-])C(C(=O)Nc2cccc(F)c2F)C(c2ccc(C(F)(F)F)cn2)C1 (racemic) [Compound 88] | 15 | 20 | 90 | 100 | 20 | 90 | 10 | 70 | 0 | 60 | 0 | 80 | 0 | 15 | 0 | 0 | 0 | 10 | 0 | 30 | Ryegrass, Italian plant response rating (0 to 100 scale) ([7]; 125 g ai/ha): 0; Pigweed plant response rating ([12]; 125 g ai/ha): 0; Pigweed plant response rating ([12]; 500 g ai/ha): 0; Blackgrass plant response rating ([13]; 125 g ai/ha): 10; Blackgrass plant response rating ([13]; 500 g ai/ha): 30; Barnyardgrass plant response rating ([14]; 125 g ai/ha): 0; Barnyardgrass plant response rating ([14]; 500 g ai/ha): 50; Corn plant response rating (corn (Zea mays); 125 g ai/ha): 0; Corn plant response rating (corn (Zea mays); 500 g ai/ha): 0; Galium plant response rating ([15]; 125 g ai/ha): 20; Galium plant response rating ([15]; 500 g ai/ha): 50; Ragweed plant response rating ([16]; 125 g ai/ha): 0; Ragweed plant response rating ([16]; 500 g ai/ha): 10; Ryegrass, Italian plant response rating ([17]; 125 g ai/ha): 0; Ryegrass, Italian plant response rating ([17]; 500 g ai/ha): 0 |
| CC1=[N+]([O-])C(C(=O)Nc2cccc(F)c2F)C(c2ccc(C(F)(F)F)c(Cl)c2)C1 (racemic) [Compound 102] | 0 | 80 | 90 | 0 | 90 | 90 | 10 | 80 | 60 | 90 | 50 | 80 | 90 | 0 | 20 | 40 | 70 | 80 | 30 | 40 | Ryegrass, Italian plant response rating (0 to 100 scale) ([7]; 125 g ai/ha): 70; Pigweed plant response rating ([12]; 125 g ai/ha): 30; Pigweed plant response rating ([12]; 500 g ai/ha): 70; Blackgrass plant response rating ([13]; 125 g ai/ha): 60; Blackgrass plant response rating ([13]; 500 g ai/ha): 80; Barnyardgrass plant response rating ([14]; 125 g ai/ha): 70; Barnyardgrass plant response rating ([14]; 500 g ai/ha): 80; Corn plant response rating (corn (Zea mays); 125 g ai/ha): 40; Corn plant response rating (corn (Zea mays); 500 g ai/ha): 40; Galium plant response rating ([15]; 125 g ai/ha): 50; Galium plant response rating ([15]; 500 g ai/ha): 70; Ragweed plant response rating ([16]; 125 g ai/ha): 20; Ragweed plant response rating ([16]; 500 g ai/ha): 50; Ryegrass, Italian plant response rating ([17]; 125 g ai/ha): 40; Ryegrass, Italian plant response rating ([17]; 500 g ai/ha): 50 |
| CC1=[N+]([O-])C(C(=O)Nc2cccc(F)c2F)C(c2cc(C)cc(F)c2)C1 (racemic) [Compound 103] | 0 | 90 | 90 | 80 | 90 | 100 | 10 | 80 | 30 | 70 | 60 | 90 | 90 | 65 | 20 | 70 | 80 | 90 | 0 | 30 | Pigweed plant response rating ([12]; 125 g ai/ha): 0; Pigweed plant response rating ([12]; 500 g ai/ha): 50; Blackgrass plant response rating ([13]; 125 g ai/ha): 80; Blackgrass plant response rating ([13]; 500 g ai/ha): 70; Barnyardgrass plant response rating ([14]; 125 g ai/ha): 80; Barnyardgrass plant response rating ([14]; 500 g ai/ha): 90; Corn plant response rating (corn (Zea mays); 125 g ai/ha): 50; Corn plant response rating (corn (Zea mays); 500 g ai/ha): 60; Galium plant response rating ([15]; 125 g ai/ha): 0; Galium plant response rating ([15]; 500 g ai/ha): 50; Ragweed plant response rating ([16]; 125 g ai/ha): 40; Ragweed plant response rating ([16]; 500 g ai/ha): 40; Ryegrass, Italian plant response rating ([17]; 125 g ai/ha): 50; Ryegrass, Italian plant response rating ([17]; 500 g ai/ha): 70 |
| CC1=[N+]([O-])C(C(=O)Nc2cccc(F)c2F)C(c2ccc(Cl)c(C(F)(F)F)c2)C1 (racemic) [Compound 104] | 0 | 80 | 90 | 40 | 90 | 90 | 30 | 70 | 10 | 80 | 20 | 60 | 90 | 40 | 10 | 50 | 20 | 80 | 50 | 70 | Pigweed plant response rating ([12]; 125 g ai/ha): 30; Pigweed plant response rating ([12]; 500 g ai/ha): 70; Blackgrass plant response rating ([13]; 125 g ai/ha): 70; Blackgrass plant response rating ([13]; 500 g ai/ha): 70; Barnyardgrass plant response rating ([14]; 125 g ai/ha): 60; Barnyardgrass plant response rating ([14]; 500 g ai/ha): 80; Corn plant response rating (corn (Zea mays); 125 g ai/ha): 70; Corn plant response rating (corn (Zea mays); 500 g ai/ha): 60; Galium plant response rating ([15]; 125 g ai/ha): 30; Galium plant response rating ([15]; 500 g ai/ha): 70; Ragweed plant response rating ([16]; 125 g ai/ha): 20; Ragweed plant response rating ([16]; 500 g ai/ha): 70; Ryegrass, Italian plant response rating ([17]; 125 g ai/ha): 20; Ryegrass, Italian plant response rating ([17]; 500 g ai/ha): 70 |
| CC1=[N+]([O-])C(C(=O)Nc2cccc(F)c2F)C(c2cccc(C3OCCO3)c2)C1 (racemic) [Compound 105] | 0 | 30 | 90 | 0 | 60 | 90 | 0 | 60 | 0 | 0 | 0 | 0 | 80 | 0 | 0 | 30 | 10 | 30 | 0 | 0 | Pigweed plant response rating ([12]; 125 g ai/ha): 0; Pigweed plant response rating ([12]; 500 g ai/ha): 0; Blackgrass plant response rating ([13]; 125 g ai/ha): 20; Blackgrass plant response rating ([13]; 500 g ai/ha): 60; Barnyardgrass plant response rating ([14]; 125 g ai/ha): 30; Barnyardgrass plant response rating ([14]; 500 g ai/ha): 80; Corn plant response rating (corn (Zea mays); 125 g ai/ha): 0; Corn plant response rating (corn (Zea mays); 500 g ai/ha): 40; Galium plant response rating ([15]; 125 g ai/ha): 30; Galium plant response rating ([15]; 500 g ai/ha): 40; Ragweed plant response rating ([16]; 125 g ai/ha): 0; Ragweed plant response rating ([16]; 500 g ai/ha): 40; Ryegrass, Italian plant response rating ([17]; 125 g ai/ha): 0; Ryegrass, Italian plant response rating ([17]; 500 g ai/ha): 40 |

From patent US11498899B2, “Nitrone herbicides” (FMC Corporation, priority 2016, dated 2022)
